Key:
[1] = DPPH radical scavenging test; details: 30 min, room temperature
Procedure: (§1) The β-carotene bleaching test was performed to investigate the ability of the extract to protect from lipid peroxidation. All test protocols were previously reported. Briefly, in the DPPH test, a solution of DPPH was mixed with extract at different concentrations (10-1000 μg/mL). After that, the mixture was incubated at room temperature for 30 min. The absorbance was read at 517 nm. In the ABTS test, a solution of ABTS radical cation was prepared and, after 12 h, was diluted with ethanol to reach an absorbance of 0.70 at 734 nm. The stabilized ABTS^+ solution was added to extracts at different concentrations (1-400 μg/mL), and the mixture was left to react at room temperature for 6 min. After that, the absorbance was read at 734 nm. Ascorbic acid was employed as a positive control in both the ABTS and DPPH assays. In the FRAP test, a mixture of tripyridyltriazine (TPTZ) solution, FeCl3, and acetate buffer was added to the sample at a concentration of 2.5 mg/mL. After 30 min of incubation at room temperature, the absorbance was measured at 595 nm. Butylated hydroxytoluene (BHT) was used as a positive control. The protection from lipid peroxidation was studied by using the β-carotene bleaching test. […] The mixture was left to react for 30 and 60 min at 45 °C, and the absorbance was read at 470 nm. Propyl gallate was used as a positive control.

[2] = ABTS radical scavenging test; details: 6 min, room temperature
Procedure: as §1

[3] = β-carotene bleaching test (protection from lipid peroxidation)
Procedure: as §1

[4] = Ferric Reducing Ability Power (FRAP) test; details: at 2.5 mg/mL
Procedure: as §1

O=C1O[C@H]([C@@H](O)CO)C(O)=C1O [Ascorbic acid, ascorbic acid]
DPPH Test IC50 [1]: 5.0 ± 0.8 µg/mL
ABTS Test IC50 [2]: 1.7 ± 0.06 µg/mL

CCCOC(=O)c1cc(O)c(O)c(O)c1 [Propyl gallate, propyl gallate]
β-Carotene Bleaching Test IC50 ([3]; 30 min): 1.04 ± 0.04 µg/mL
β-Carotene Bleaching Test IC50 ([3]; 60 min): 0.09 ± 0.00 µg/mL

Cc1cc(C(C)(C)C)c(O)c(C(C)(C)C)c1 [BHT, butylated hydroxytoluene]
FRAP Test [4]: 63.27 ± 4.35 μM Fe(II)/g
